# Source: patent US8962664B2, “Selective glycosidase inhibitors and uses thereof” (Simon Fraser University, priority 2006, dated 2015)
# “Also recorded” adds a separate entry of the source.
# Legend:
# [1] = Nine-month repeat dose toxicology study in mice: urinalysis; assay type: in vivo, wild-type JNPL3 mice; conditions: mice dosed orally nine months, week 40, pooled urine; F2: NAG-Bt 100 then 1000 mg/kg/day (n = 2); F1: NAG-Bt 100 then NAG-AE 500 mg/kg/day (n = 3)
# Protocol: (§1) The toxicological effects of repeated oral administration of (3aR,5R,6S,7R,7aR)-5-(hydroxymethyl)-2-propyl-5,6,7,7a-tetrahydro-3aH-pyrano[3,2-d]thiazole-6,7-diol (NAG-Bt) and (3aR,5R,6S,7R,7aR)-2-(ethylamino)-5-(hydroxymethyl)-5,6,7,7a-tetrahydro-3aH-pyrano[3,2-d]thiazole-6,7-diol (NAG-AE) to wild-type JNPL3 mice over nine months was measured. All animals were obtained from Taconic Farms, Inc. (model number 001638-W-F), and were 10-12 weeks of age at delivery, designated “week 1” of the study. In week 1, the mice were split into three groups: Group E received vehicle alone throughout the study; Group F1 received 100 mg/kg/day NAG-Bt in their food from week 1 to week 15, then were switched to 500 mg/kg/day NAG-AE in their drinking water from week 16 to week 40; Group F2 received 100 mg/kg/day NAG-Bt in their food from week 1 to week 15 then were switched to 1000 mg/kg/day NAG-Bt in their drinking water from week 16 to week 40. […] In week 40, blood and urine samples were collected from animals in each group; the urine samples for animals in each group were pooled prior to analysis, while the blood samples were analyzed individually.
# [2] = Nine-month repeat dose toxicology study in mice: hematology (CBC) and serum chemistry; assay type: in vivo, wild-type JNPL3 mice; conditions: oral, nine months
# Protocol: as §1
# [3] = Nine-month repeat dose toxicology study in mice: general observations; assay type: in vivo, wild-type JNPL3 mice; conditions: oral, nine months, comparatively high levels
# Protocol: as §1
# [4] = tested on: tau phosphorylation and NFT formation; experiment: Reduction of NFT formation in transgenic P301L JNPL3 mice; assay type: in vivo; conditions: oral, Group B NAG-Bt 100 then 1000 mg/kg/day; for protein O-GlcNAc modification in hippocampal brain sections: Group D NAG-AE 500 mg/kg/day weeks 16 to 32, anti-OGlcNAc staining; for tau phosphorylation and NFT formation in hippocampal brain sections: Group D NAG-AE 500 mg/kg/day weeks 16 to 32, anti-phospho Tau-Ser404 staining, vs untreated transgenic Group A
# Protocol: Animal Dosing and Tissue Collection. Hemizygous transgenic female JNPL3 mice overexpressing human mutant tau protein (P301L) and wild type control mice were obtained from Taconic Farms, Inc. (model numbers 001638-T-F and 001638-W-F, respectively). The mice were 10-12 weeks of age at delivery, designated “week 1” of the study. In week 1, the mice were split into four groups: Group A (transgenic mice) received vehicle alone throughout the study; Group B (transgenic mice) received 100 mg/kg/day NAG-Bt in their food from week 1 to week 15, then were switched to 1000 mg/kg/day NAG-Bt in their drinking water from week 16 to week 32; Group D (transgenic mice) received vehicle alone from weeks 1 to 15, and then 500 mg/kg/day NAG-AE in their drinking water from weeks 16 to 32; Group E (wild-type) received vehicle alone throughout the study. In week 32, three animals per group were sacrificed and tissues were collected. Transgenic mice and controls were sacrificed using a CO2 chamber. About 45 seconds after they stopped breathing, they were perfused transcardially with 30 mL of 0.9% NaCl buffer followed by 30 mL of 4% paraformaldehyde (w/v in 1× phosphate-buffered saline, PBS, pH 7.4). The brains were then carefully dissected and post-fixed in 4% parformaldehyde before being cryoprotected in 20% sucrose (w/v in 1×PBS) for 24 hours at 4° C.
# Cryostat sectioning. The brains were then mounted with optimal cutting temperature (OCT) medium (Tissue Tek) and sectioned sagittally on a Reichert-Jung Cryocut 1800 (Leica) using Feather microtome blades (Tissue Tek) at 50 μm and placed in 1×PBS for further processing. The cryostat temperature was set at −17° C. to −19° C.
# Immunohistochemical Staining. Free-floating 50 μm sagittal sections (lateral about 0.6 mm from midline, Mouse Brain in Stereotaxic Coordinates, second edition, by George Paxinos and Leith B. J. Franklin) were permeabilized with 1×PBS containing 0.3% Triton X-100 for 15 min. After blocking with 10% goat serum and 2.5% BSA for 1 h at room temperature, sections were incubated with specific antibodies overnight at 4° C. (primary antibodies: anti-OGlcNAc, Covance; anti-phospho Tau-ser404, Santa Cruz). The sections then were washed three times with 0.3% Triton X-100 in PBS for 15 min each and incubated with specific secondary antibody conjugated with Cy3 or FITC for 1.5 h at room temperature in the dark. After several washes in 1×PBS, sections were mounted on slides and air-dried in the dark. Once dry, Vectashield Mounting Medium (Vector Laboratories, Inc.) was added to the slide before applying coverslips. Coverslips were sealed with clear nail enamel and slides were stored in dark at 4° C. For negative control staining, sections were incubated without primary antibodies.
# Imaging. […]
Structure (SMILES),Urine Appear [1],Urine Bilirubin [1],Urine Blood [1],Urine Cocci [1],Urine Color [1],Urine Creatinine [1],Urine Epith [1],Urine Glucose [1],Urine Ketones [1],Urine Protein [1],Urine RBC [1],Urine Rods [1],Urine Sp. Grv. [1],Urine Urobil [1],Urine WBC [1],Urine pH [1],"changes in ALT, AST, or sorbitol dehydrogenase (liver toxicity) [2]",toxicological consequences of long-term dosing [3],protein O-GlcNAc modification in hippocampal brain sections [4],tau phosphorylation and NFT formation in hippocampal brain sections [4]
"CCNC1=N[C@@H]2[C@@H](O)[C@H](O)[C@@H](CO)O[C@@H]2S1 [NAG-AE, (3aR,5R,6S,7R,7aR)-2-(ethylamino)-5-(hydroxymethyl)-5,6,7,7a-tetrahydro-3aH-pyrano[3,2-d]thiazole-6,7-diol]",Slcloudy,Neg,Neg,Neg,Yellow,3105.4,Few,Neg,Neg,Neg,Neg,Neg,1.039,Normal,Neg,6,no changes,no serious toxicological consequences,dramatically elevated,dramatically reduced; also recorded: significantly decreased
"CCCC1=N[C@@H]2[C@@H](O)[C@H](O)[C@@H](CO)O[C@@H]2S1 [NAG-Bt, (3aR,5R,6S,7R,7aR)-5-(hydroxymethyl)-2-propyl-5,6,7,7a-tetrahydro-3aH-pyrano[3,2-d]thiazole-6,7-diol]",Clear,Neg,–,Neg,Yellow,7790.9,Few,Neg,Neg,Neg,Neg,Neg,1.05,Normal,Neg,5,no changes,no serious toxicological consequences,dramatically elevated,dramatically reduced; also recorded: significantly decreased
